Experimental findings from ChEMBL document CHEMBL1128030, “Synthesis and biological evaluation of a library containing potentially 1600 amides / esters. A strategy for rapid compound generation and screening” (Bioorg Med Chem Lett, 1994) are described below.

In one experiment the target is T1, Neuromedin-K receptor (Homo sapiens, UniProt P29371).
T1 sequence (P29371 whole entry): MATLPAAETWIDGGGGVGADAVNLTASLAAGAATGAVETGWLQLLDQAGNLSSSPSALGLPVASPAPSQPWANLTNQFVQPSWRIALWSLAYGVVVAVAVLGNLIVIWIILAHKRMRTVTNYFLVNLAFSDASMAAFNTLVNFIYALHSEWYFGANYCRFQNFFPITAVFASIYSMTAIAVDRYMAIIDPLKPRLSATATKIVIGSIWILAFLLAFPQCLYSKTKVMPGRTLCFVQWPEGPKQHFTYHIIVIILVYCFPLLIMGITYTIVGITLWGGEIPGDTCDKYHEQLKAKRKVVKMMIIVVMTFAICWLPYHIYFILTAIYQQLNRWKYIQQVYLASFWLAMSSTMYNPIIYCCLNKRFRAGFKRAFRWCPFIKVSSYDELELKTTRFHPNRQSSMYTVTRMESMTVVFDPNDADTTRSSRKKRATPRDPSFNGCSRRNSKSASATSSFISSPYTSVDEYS
Kind of experiment: Compound was tested for its ability to displace [3H]senktide binding to human Tachykinin receptor 3 expressed in CHO cells. It is filed as cell-based.

For another experiment, the target named is T2, Interstitial collagenase (Homo sapiens, UniProt P03956).
T2 sequence (P03956 whole entry): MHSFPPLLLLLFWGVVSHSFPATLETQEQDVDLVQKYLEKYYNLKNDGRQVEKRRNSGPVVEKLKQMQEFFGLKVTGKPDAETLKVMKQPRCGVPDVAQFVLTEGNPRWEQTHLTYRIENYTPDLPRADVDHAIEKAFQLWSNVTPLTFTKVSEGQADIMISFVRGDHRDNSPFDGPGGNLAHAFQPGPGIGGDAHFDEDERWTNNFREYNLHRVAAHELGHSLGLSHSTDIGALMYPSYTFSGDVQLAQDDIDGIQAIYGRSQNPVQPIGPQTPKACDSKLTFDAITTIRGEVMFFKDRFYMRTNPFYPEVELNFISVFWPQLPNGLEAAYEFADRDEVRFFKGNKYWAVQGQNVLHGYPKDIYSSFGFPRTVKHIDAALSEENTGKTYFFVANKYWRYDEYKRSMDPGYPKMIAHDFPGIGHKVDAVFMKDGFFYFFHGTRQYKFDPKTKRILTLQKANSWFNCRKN
The experiment in a line: Inhibition of human recombinant MMP-I.

What is called IC50 is the concentration at which inhibition is half-maximal. The compound `O=C(/C=C/c1ccccc1)N1CCN(C(c2ccccc2)c2ccc(Cl)cc2)CC1` (configuration not stated) came in with an IC50 on Neuromedin-K receptor of 60 µM. In the case of `N#Cc1ccc(C(=O)Nc2ccccc2N2CCCCC2)cc1`, the 50% inhibitory concentration (IC50) on Interstitial collagenase is 55 µM.
